Literature values in patent publication US20040053391A1, “Renal cell carcinoma-antigen G250-derived peptides that elicit both CD4+ and CD8+ T-cell responses” (Katholieke Universiteit Nijmegen, priority 2002, published 2004).

System: CD8+CTL's
Conditions: HLA-A2.1; Vissers et al. 1999, WO 01/98363

## G250 amino acid sequence from 254 to 262: previously identified HLA-A2.1-restricted CTL epitope of G250, comprised within 249-268 (HLSTAFARV; UniProt Q16790 254-262, looked up, fragment)
  CTL epitope character: HLA-A2.1-restricted CTL epitope that is both naturally processed and immunogenic
